Laboratory results taken from patent US9771335B2 (THE JOHNS HOPKINS UNIVERSITY, priority 2015, dated 2017).
“Also recorded” adds a separate entry of the source.

Assays:
[1] = target: T1, hNav1.6 (Homo sapiens, UniProt Q9UQD0); test: Two-electrode voltage-clamp recording from Xenopus oocytes expressing hNav1.6 with β1; type: cell-based; details: for hNav1.6 Activation (V1/2) / hNav1.6 Inactivation (V1/2), steady-state inactivation: 100 μM drug, Xenopus oocytes, DMSO 1% or less
T1 construct: host or cells: Xenopus oocytes (cRNA injection)

[2] = tested on: picrotoxin-induced generalized seizures in male Cr1:CF1 mice; test: Picrotoxin seizure induction; type: in vivo
Description: (§1) Animal husbandry and drug administration. Male Cr1:CF1 mice (10-12 weeks old, Charles River) were housed under a 12 hour light-dark cycle with free access to food and water and all experiments were carried out between 10 am and 4 pm. 1-[phenyl-methyl]-1H-1,2,3-triazole-4-carboxamide-5-methyl (Compound B) (Sigma Aldrich) was suspended in a 40% solution of cyclodextrin (Sigma Aldrich) in sterile saline (0.9%) and 15 minutes prior to each seizure induction paradigm, 75 mg/kg of compound B was administered via intraperitoneal injection (ip) injection. Vehicle treated animals were similarly administrated 40% cyclodextrin and served as the controls for each experiment. The Emory University Institutional Animal Care and Use Committee approved all experimental protocols involving mice.
Seizure induction paradigms and analyses. Picrotoxin seizure induction—15 minutes prior to i.p. injection of picrotoxin (10 mg/kg, Sigma Aldrich), mice were administered vehicle or compound B (n=12 per group). Latencies to the first myoclonic jerk, forelimb clonus, and generalized tonic-clonic seizure were compared between compound B and vehicle-treated mice. The myoclonic jerk is characterized by a sudden jerk of the upper body whereas forelimb clonus involves rapid movement of the forelimbs for at least 5s. Finally, the generalized tonic-clonic seizure involves the loss of postural control with rapid movement of the limbs for at least 5s.
Statistical analysis. A Student's t-test was used to identify statistically significant differences in latencies between vehicle- and compound B-treated groups for each seizure phenotype following administration of flurothyl and picrotoxin. […] All data are presented as the mean±s.e.m.; p values <0.05 were considered significant.

[3] = tested on: 6 Hz (17 mA) induced partial seizures in male Cr1:CF1 mice; test: 6 Hz psychomotor seizure induction; type: in vivo; details: 75 mg/kg ip, p<0.0001
Description: as §1
6 Hz psychomotor seizure induction. Topical anesthetic (0.5% tetracaine hydrochloride ophthalmic solution) was applied to the cornea 30 minutes before testing. Fifteen minutes prior to seizure induction, mice were administrated vehicle or compound B (n=12 per group). Each mouse was manually restrained and corneal stimulation (0.2 ms pulse, 6 Hz, 3s) was performed at a current intensity of 17 mA (ECT Unit 57800; Ugo Basile, Comerio Italy). […]

[4] = target: T2, α1/β2/γ2 GABAA receptor (Homo sapiens, UniProt P14867+P18507+P47870); test: GABAA receptor activation in oocytes held at −70 mV; type: cell-based; details: 100 μM; 5 μM muscimol as activator control
T2 construct: expressed in transfected cells; host or cells: oocytes (heterologous expression inferred)
Excerpt: Oocytes were kept at −70 mV throughout the experiment.

[5] = target: T3, hNav1.1 (Homo sapiens, UniProt P35498); test: Two-electrode voltage-clamp recording from Xenopus oocytes expressing hNav1.1 with β1; type: cell-based; details: for hNav1.1 Inactivation (V1/2), steady-state inactivation / hNav1.1 Activation (V1/2): 100 μM drug, Xenopus oocytes, DMSO 1% or less; for hNav1.1 Activation (V1/2): at least one hour incubation, ** = p<0.005 vs DMSO; for effect on hNav1.1 opening / gating (in words): G/Gmax vs DMSO control; for effect on hNav1.1 persistent current (in words): end of a 50 ms test pulse; for depolarizing shift in hNav1.1 channel activation voltage: vs DMSO control
T3 construct: host or cells: Xenopus oocytes (cRNA injection)

[6] = target: T4, hNav1.3 (Homo sapiens, UniProt Q9NY46); test: Two-electrode voltage-clamp recording from Xenopus oocytes expressing hNav1.3 with β1; type: cell-based; details: for hNav1.3 Activation (V1/2) / hNav1.3 Inactivation (V1/2), steady-state inactivation: 100 μM drug, Xenopus oocytes, DMSO 1% or less; for effect on hNav1.3 opening / tested gating parameters (in words): 100 μM, vs DMSO control
T4 construct: host or cells: Xenopus oocytes (cRNA injection)

[7] = tested on: flurothyl-induced generalized seizures in male Cr1:CF1 mice; test: Flurothyl seizure induction; type: in vivo; details: 75 mg/kg ip, vs vehicle, p=0.6
Description: as §1
Flurothyl Seizure induction. Latencies to flurothyl-induced seizures were determined as previously described (Neurobiol Dis 49C, 211-220 (2012)). Briefly, flurothyl (2,2,2-trifluroethylether; Sigma Aldrich) was dispensed at a rate of 20 μl/minute into a Plexiglas chamber and latencies to three behavioral phenotypes were compared between vehicle-treated and compound B-treated (75 mg/kg) mice (n=12 per group): 1) the first myoclonic jerk, 2) a generalized tonic-clonic seizure, and 3) a generalized tonic-clonic seizure with tonic extension. […]

[8] = target: T5, hNav1.2 (Homo sapiens, UniProt Q99250); test: Two-electrode voltage-clamp recording from Xenopus oocytes expressing hNav1.2 with β1; type: cell-based; details: for hNav1.2 Activation (V1/2) / hNav1.2 Inactivation (V1/2), steady-state inactivation: 100 μM drug, Xenopus oocytes, DMSO 1% or less; for effect on hNav1.2 opening / tested gating parameters (in words): 100 μM, vs DMSO control
T5 construct: host or cells: Xenopus oocytes (cRNA injection)

[9] = Solubility of rufinamide; type: physicochemical
[10] = 75 mg/kg ip 15 minutes prior to picrotoxin 10 mg/kg, vs vehicle

T2 sequence (P14867 28-456): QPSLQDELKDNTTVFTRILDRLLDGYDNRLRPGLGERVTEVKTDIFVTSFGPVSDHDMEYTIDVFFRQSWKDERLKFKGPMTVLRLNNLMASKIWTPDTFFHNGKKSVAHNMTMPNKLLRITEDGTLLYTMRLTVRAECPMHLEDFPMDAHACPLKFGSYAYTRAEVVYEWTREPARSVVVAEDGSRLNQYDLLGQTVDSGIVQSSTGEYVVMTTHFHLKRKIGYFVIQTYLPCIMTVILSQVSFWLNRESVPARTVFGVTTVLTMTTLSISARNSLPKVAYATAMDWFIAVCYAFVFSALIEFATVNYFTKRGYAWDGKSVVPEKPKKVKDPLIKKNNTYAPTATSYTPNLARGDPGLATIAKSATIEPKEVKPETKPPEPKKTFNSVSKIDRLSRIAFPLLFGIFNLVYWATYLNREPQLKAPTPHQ
T2 sequence (P47870 25-512 limits assumed): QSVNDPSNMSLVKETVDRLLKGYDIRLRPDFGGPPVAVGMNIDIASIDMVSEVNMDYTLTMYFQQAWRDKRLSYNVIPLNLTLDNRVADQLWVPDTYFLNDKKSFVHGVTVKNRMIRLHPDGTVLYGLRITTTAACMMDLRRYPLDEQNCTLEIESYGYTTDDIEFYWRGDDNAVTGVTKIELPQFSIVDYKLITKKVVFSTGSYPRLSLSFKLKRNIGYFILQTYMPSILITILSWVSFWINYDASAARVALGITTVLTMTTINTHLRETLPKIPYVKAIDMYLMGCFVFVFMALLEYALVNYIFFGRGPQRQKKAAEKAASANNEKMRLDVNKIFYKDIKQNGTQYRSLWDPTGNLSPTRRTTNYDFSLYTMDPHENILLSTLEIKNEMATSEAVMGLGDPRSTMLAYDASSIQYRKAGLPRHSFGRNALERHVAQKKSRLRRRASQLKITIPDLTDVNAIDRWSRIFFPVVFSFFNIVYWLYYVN
T2 sequence (P18507 40-475): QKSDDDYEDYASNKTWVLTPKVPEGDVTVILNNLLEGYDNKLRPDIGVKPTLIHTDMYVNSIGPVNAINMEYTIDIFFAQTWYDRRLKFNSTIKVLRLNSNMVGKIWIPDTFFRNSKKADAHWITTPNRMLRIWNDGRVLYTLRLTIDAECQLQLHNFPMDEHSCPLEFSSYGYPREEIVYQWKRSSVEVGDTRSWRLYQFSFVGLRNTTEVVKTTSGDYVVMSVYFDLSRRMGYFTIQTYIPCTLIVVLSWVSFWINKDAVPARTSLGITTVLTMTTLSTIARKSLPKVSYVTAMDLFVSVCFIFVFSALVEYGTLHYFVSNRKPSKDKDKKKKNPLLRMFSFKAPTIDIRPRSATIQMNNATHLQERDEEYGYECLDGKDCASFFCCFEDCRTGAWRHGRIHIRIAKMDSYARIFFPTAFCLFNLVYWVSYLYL

Compound	effect on hNav1.6 opening / tested gating parameters (in words) ([1]; 100 μM, vs DMSO control)	hNav1.1 Inactivation (V1/2), steady-state inactivation [5] [mV]	hNav1.1 Activation (V1/2) [5] [mV]	effect on hNav1.1 opening / gating (in words) ([5]; 100 μM)	effect on hNav1.1 persistent current (in words) ([5]; 100 μM)	effect on hNav1.3 opening / tested gating parameters (in words) [6]	effect on hNav1.2 opening / tested gating parameters (in words) [8]	also measured
Cc1c(C(N)=O)nnn1Cc1ccccc1 [Compound B, 1-[phenyl-methyl]-1H-1,2,3-Triazole-4-carboxamide-5-methyl]	unaltered	−49.4 ± 0.3	−27.4 ± 1.0	more efficaciously when compared to rufinamide; also recorded: clearly inhibit hNav1.1 opening	do not affect persistent current	unaltered	unaltered	hNav1.6 Activation (V1/2) [1]: −23.8 ± 1.9 mV; hNav1.6 Inactivation (V1/2), steady-state inactivation [1]: −62.6 ± 0.7 mV; frequency of the behavioral seizures vs vehicle, picrotoxin ([2]; 75 mg/kg ip): no difference; average latency to forelimb clonus (FC), picrotoxin [2, 10]: no statistically significant differences; average latency to the first myoclonic jerk (MJ), picrotoxin [2, 10]: no statistically significant differences; severity of seizures vs vehicle (modified Racine scale), 6 Hz [3]: dramatically less severe; also recorded: typically less severe; activation of the α1/β2/γ2 GABAA receptor (in words) [4]: do not activate; also recorded: do not evoke inward GABAA-mediated currents; effect on entry or voltage-dependence of hNav1.1 slow inactivation (in words) [5]: do not influence; depolarizing shift in hNav1.1 channel activation voltage ([5]; 100 μM): ~+11 mV; Voltage-dependence of SI (V), V1/2 of hNav1.1 slow inactivation ([5]; oocytes expressing hNav1.1, Boltzmann fit): −43.2 ± 1.3 mV; Entry into SI (T), time constant of entry into hNav1.1 slow inactivation ([5]; oocytes expressing hNav1.1, single exponential fit): 5.5 ± 0.4 s; hNav1.3 Activation (V1/2) [6]: −25.8 ± 1.4 mV; hNav1.3 Inactivation (V1/2), steady-state inactivation [6]: −50.0 ± 0.8 mV; average latency to the MJ, flurothyl [7]: comparable; hNav1.2 Activation (V1/2) [8]: −23.6 ± 1.1 mV; hNav1.2 Inactivation (V1/2), steady-state inactivation [8]: −53.6 ± 1.2 mV
1-[(2,6-difluorophenyl)methyl]-1H-1,2,3-triazole-carboxymethyl-5-methyl [Compound L]	–	–	–	only slightly inhibits hNav1.1 opening	–	not significant	not significant	effect on hNav1.6 steady-state inactivation (in words) ([1]; 100 μM): dramatically affect hNav1.6 steady-state inactivation
NC(=O)c1nnn(Cc2cccc(F)c2)c1N [Compound A, 1-[(3-fluorophenyl)methyl]-1H-1,2,3-Triazole-4-carboxamide-5-amine]	–	−50.5 ± 1.2	−30.8 ± 1.0	clearly inhibit hNav1.1 opening	neither of these compounds influences	–	–	–
NC(=O)c1cn(Cc2c(F)cccc2F)nn1 [Rufinamide, 1-[(2,6-difluorophenyl)methyl]-1H-1,2,3-Triazole-4-carboxamide, reference compound]	not inhibited; also recorded: not significant	−47.8 ± 1.6	−30.6 ± 0.9	dramatic depolarizing shift; also recorded: inhibits hNav1.1 opening	do not affect persistent current	not inhibited	not inhibited	hNav1.6 Activation (V1/2) [1]: −28.1 ± 0.8 mV; hNav1.6 Inactivation (V1/2), steady-state inactivation [1]: −60.0 ± 0.7 mV; activation of the α1/β2/γ2 GABAA receptor (in words) [4]: do not activate; also recorded: do not evoke inward GABAA-mediated currents; effect on entry or voltage-dependence of hNav1.1 slow inactivation (in words) [5]: do not influence; hNav1.3 Activation (V1/2) [6]: −24.5 ± 2.4 mV; hNav1.3 Inactivation (V1/2), steady-state inactivation [6]: −52.6 ± 1.6 mV; hNav1.2 Activation (V1/2) [8]: −29.5 ± 1.2 mV; hNav1.2 Inactivation (V1/2), steady-state inactivation [8]: −57.7 ± 0.5 mV; solubility ([9]; DMSO, organic solvent or mixture): ≤ 9000 µg/mL; solubility in water ([9]; water): slightly soluble
NC(=O)c1nnn(Cc2ccc(F)cc2)c1N [Compound D, 1-[(4-fluorophenyl)methyl]-1H-1,2,3-Triazole-4-carboxamide-5-amine]	–	−49.8 ± 1.6	−32.5 ± 2.3	not significant	–	–	–	–
COC(=O)c1nnn(Cc2c(F)cccc2F)c1C [Compound L, 1-[(2,6-difluorophenyl)methyl]-1H-1,2,3-triazole-carboxymethyl-5-methyl]	–	–	–	much smaller compared to compound B	–	–	–	shift of midpoint of hNav1.6 channel availability (steady-state inactivation) ([1]; 100 μM, vs DMSO control): ~−20 mV
CCc1c(C(N)=O)nnn1Cc1ccccc1 [Compound F, 1-(phenylmethyl)-1H-1,2,3-triazole-4-carboxamide-5-ethyl]	not significant	–	–	inhibits hNav1.1 opening	does not influence	not significant	not significant	effect on hNav1.1 steady-state inactivation (in words) ([5]; 100 μM): does not influence; depolarizing shift in hNav1.1 channel activation voltage ([5]; 100 μM): ~+12 mV
OCc1cn(Cc2cccc(F)c2)nn1 [Compound C, 1-[(3-fluorophenyl)methyl]-1H-1,2,3-Triazole-4-hydroxymethyl]	–	−49.2 ± 0.6	−38.4 ± 1.3	does not influence hNav1.1 gating; also recorded: no longer affects hNav1.1 opening	–	–	–	–
